From patent US20210317140A1, “Heterocyclic Compounds and Methods of Use” (MEDIVATION TECHNOLOGIES, INC, priority 2013, published 2021)

Columns and labels:
BTK = target: T1, BTK (Homo sapiens, UniProt Q06187); assay: BTK kinase assay (HotSpot, 33P ATP); format: biochemical; conditions: for BTK @ 0.01 μM (% Inh): 0.01 μM compound; for BTK @ 0.01 μM (% Inh) / BTK @ 0.1 μM (% Inh) / BTK @ 1 μM (% Inh): 10 μM ATP; for BTK @ 0.1 μM (% Inh): 0.1 μM compound; for IC50: 10 dose IC50, 10 μM ATP; for BTK @ 1 μM (% Inh): 1 μM compound
T1 construct: purchased Reaction Biology Corporation
Summary of the method: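 In 20 mM Hepes (pH 7.5) with 10 mM MgCl2, 1 mM EGTA, 0.1 mM Na3VO4, 2 mM DTT, 0.02% Brij35, 0.02 mg/mL BSA and 1% DMSO, kinase and substrate were exposed to ten compound doses for 15–20 min.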

PI3Kδ = target: T2, PI3Kδ (Homo sapiens, UniProt O00329); assay: PI3Kδ kinase assay (HTRF, PIP3 detection); format: biochemical; conditions: for PI3Kδ @ 0.01 μM (% Inh): 0.01 μM compound; for PI3Kδ @ 0.01 μM (% Inh) / PI3Kδ @ 0.1 μM (% Inh) / PI3Kδ @ 1 μM (% Inh): 10 μM ATP; for PI3Kδ @ 0.1 μM (% Inh): 0.1 μM compound; for IC50: 10 dose IC50, 10 μM ATP; for PI3Kδ @ 1 μM (% Inh): 1 μM compound
T2 construct: purchased Reaction Biology Corporation
Summary of the method: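 10-dose HTRF assay; kinase preincubated with compound 10 min at RT, then reacted with 10 μM PIP2 and 10 μM ATP for 30 min at 30 °C in HEPES pH 7.0 buffer. PIP3 product displaces biotin-PIP3 from the Eu/APC complex; signal converted to PIP3 via standard curve, IC50 by nonlinear regression.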

CD69+B220+ cells = assay: B cell activation assay (IgD-stimulated splenocytes, CD69+B220+ cells by FACS); format: cell-based; conditions: mouse splenocytes, IgD 3 μg/mL, 4 h; for CD69 @ 100 nM (% Inh): 100 nM compound
Description: 1 Female mouse approximately 2 months old was euthanized with CO2 and the spleen removed. The tissue was homogenized with a polished glass microscope slide. The cells were collected in 5 mL complete medium (RPMI+10% FBS+pen/strep), placed in a 15 mL falcon tube and centrifuged at 500×g for 5 min. The supernatant was discarded and the pellet was resuspended in 3 mL of ACK lysis buffer (NH4Cl 0.17M, KHCO3 10 mM, EDTA-Na2 0.1 mM, pH 7.2), incubated at 37° C. for 5 min. 2 mL complete medium was added and the mixture centrifuged at 500×g for 5 min. The supernatant was discarded and the pellet resuspended in 1 mL complete medium. The mixture was passed through a […] cell strainer and collect in 50 mL falcon tube. Enough medium was added to have a total of 10 mL. The cells were counted and seeded in 24 or 48-well plate in 1 mL complete medium at 10^6 cells/mL. The plate was placed in a 37° C. incubator for 15 min. The cells were treated for 30 min at 37° C. with 100 nM test compound dissolved in 100% DMSO. 3 μL IgD (Accurate chemical and scientific corp.) was added at a final concentration of 3 μg/mL and the mixture incubated at 37° C. for 4 h. The cells were collected in 1.5 mL eppendorf tubes, centrifuged at 500×g for 5 min and then resuspended in 100 μL of PBS+2% FBS. The following antibodies were added: α-B220 PE (pharmingen #553090), α-CD69 APC (pharmingen #60689), live/dead fixable aqua dead cell stain kit (life technologies #L34957) all at 1:300, and the mixture incubated for 15 min at 4° C. in the dark. To this was added 900 μL of PBS+2% FBS and the mixture centrifuged at 500×g for 5 min. The supernatant was removed and the pellet resuspended in 300 μL of PBS+2% FBS and mixed well. The mixture was transferred to a cytometer tube. The samples were run in the FACS Canto II cytometer and quantified by the number of CD69+B220+ cells as a percentage of the total number of B220+ alive cells.

T2 sequence (O00329 whole entry): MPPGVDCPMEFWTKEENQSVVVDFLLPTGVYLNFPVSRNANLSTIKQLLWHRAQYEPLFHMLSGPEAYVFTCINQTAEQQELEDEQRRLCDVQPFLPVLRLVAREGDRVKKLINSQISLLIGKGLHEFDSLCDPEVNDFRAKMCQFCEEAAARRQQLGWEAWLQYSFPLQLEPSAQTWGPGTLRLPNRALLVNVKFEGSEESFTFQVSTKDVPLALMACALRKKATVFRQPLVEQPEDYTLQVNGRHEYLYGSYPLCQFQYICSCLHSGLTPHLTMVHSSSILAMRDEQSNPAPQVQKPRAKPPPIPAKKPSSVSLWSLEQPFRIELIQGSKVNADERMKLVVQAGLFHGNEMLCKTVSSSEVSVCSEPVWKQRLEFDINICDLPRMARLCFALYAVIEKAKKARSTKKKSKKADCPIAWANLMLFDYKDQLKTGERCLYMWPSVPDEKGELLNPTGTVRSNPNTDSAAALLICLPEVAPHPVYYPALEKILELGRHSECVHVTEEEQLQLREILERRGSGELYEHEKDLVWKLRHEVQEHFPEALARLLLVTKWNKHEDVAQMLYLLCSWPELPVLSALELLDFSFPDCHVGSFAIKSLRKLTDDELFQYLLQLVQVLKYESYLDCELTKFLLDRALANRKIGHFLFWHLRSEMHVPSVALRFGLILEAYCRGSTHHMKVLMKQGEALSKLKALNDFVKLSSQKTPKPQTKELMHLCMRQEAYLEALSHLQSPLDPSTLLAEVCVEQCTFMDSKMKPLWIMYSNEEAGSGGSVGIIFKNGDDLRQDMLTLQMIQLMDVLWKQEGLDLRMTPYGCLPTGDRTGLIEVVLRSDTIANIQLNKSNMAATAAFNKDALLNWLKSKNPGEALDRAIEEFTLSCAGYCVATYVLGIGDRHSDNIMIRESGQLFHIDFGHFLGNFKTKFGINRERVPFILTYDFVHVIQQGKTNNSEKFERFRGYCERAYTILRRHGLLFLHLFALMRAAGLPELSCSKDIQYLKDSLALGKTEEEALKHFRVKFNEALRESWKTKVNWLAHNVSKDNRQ
T2 sequence (P27986 whole entry partner): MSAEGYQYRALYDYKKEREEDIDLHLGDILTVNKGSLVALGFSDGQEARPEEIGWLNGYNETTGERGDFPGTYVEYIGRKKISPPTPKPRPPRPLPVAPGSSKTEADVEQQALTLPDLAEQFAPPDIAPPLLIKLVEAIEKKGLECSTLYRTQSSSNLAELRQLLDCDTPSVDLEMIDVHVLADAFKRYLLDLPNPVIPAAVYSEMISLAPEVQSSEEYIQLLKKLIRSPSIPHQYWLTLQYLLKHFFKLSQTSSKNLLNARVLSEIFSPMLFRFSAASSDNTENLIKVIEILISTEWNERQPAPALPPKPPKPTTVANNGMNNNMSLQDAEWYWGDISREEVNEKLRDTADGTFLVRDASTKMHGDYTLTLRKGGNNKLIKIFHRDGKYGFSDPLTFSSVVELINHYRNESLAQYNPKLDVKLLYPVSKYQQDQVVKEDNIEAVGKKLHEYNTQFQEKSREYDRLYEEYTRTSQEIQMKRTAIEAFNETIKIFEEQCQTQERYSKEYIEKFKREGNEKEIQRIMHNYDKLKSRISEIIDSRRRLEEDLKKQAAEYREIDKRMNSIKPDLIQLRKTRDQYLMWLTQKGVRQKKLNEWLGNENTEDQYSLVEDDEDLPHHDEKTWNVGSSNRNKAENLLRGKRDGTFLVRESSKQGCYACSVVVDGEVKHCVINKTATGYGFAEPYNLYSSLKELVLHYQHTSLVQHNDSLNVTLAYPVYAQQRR
T1 sequence (Q06187 whole entry): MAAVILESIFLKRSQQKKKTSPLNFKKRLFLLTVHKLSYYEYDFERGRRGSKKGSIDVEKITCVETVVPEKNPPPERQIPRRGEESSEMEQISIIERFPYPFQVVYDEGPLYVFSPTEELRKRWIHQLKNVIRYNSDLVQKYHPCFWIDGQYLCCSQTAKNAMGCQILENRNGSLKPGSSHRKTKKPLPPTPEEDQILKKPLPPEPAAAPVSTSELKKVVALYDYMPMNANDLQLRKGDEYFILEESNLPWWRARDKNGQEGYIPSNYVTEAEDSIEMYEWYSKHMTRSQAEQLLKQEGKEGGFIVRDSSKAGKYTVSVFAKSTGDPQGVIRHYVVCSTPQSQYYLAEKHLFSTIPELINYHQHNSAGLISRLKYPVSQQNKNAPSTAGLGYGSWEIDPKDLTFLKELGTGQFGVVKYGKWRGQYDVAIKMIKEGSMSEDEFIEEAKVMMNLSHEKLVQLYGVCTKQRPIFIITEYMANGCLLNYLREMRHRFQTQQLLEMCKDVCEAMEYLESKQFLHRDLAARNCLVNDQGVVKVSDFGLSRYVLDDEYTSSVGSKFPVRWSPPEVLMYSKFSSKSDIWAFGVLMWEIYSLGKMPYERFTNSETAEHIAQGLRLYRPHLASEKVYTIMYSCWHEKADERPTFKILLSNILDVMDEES

Row | SMILES | BTK @ 0.01 μM (% Inh) (BTK) | BTK @ 0.1 μM (% Inh) (BTK) | IC50 (BTK) [nM] | PI3Kδ @ 0.01 μM (% Inh) (PI3Kδ) | PI3Kδ @ 0.1 μM (% Inh) (PI3Kδ) | IC50 (PI3Kδ) [nM] | CD69 @ 100 nM (% Inh) (CD69+B220+ cells) | BTK @ 1 μM (% Inh) (BTK) | PI3Kδ @ 1 μM (% Inh) (PI3Kδ) | IC50 (CD69+B220+ cells; Splenocyte) [nM]
1 | COc1cc(-c2nn(C3Cc4ccccc4C3)c3ncnc(N)c23)ccc1O [Compound No. 85, 4-[4-amino-1-(2,3-dihydro-1H-inden-2-yl)-1H-pyrazolo[3,4-d]pyrimidin-3-yl]-2-methoxyphenol] | 12.89 | 43.43 | 154 | 35.56 | 59.95 | 34.7 | 24.82 ± 9.20 (n = 3) % Inh | – | – | –
2 | Nc1ncnc2c1c(-c1cc(O)c(Cl)cc1Cl)nn2C1Cc2ccccc2C1 [Compound No. 103, 5-[4-amino-1-(2,3-dihydro-1H-inden-2-yl)-1H-pyrazolo[3,4-d]pyrimidin-3-yl]-2,4-dichlorophenol] | – | 47.24 | 162 | – | 72.71 | 45.7 | 25.06 ± 22.54 (n = 5) % Inh | 89.82 | 94.52 | –
3 | Nc1cc(-c2nn(C3Cc4ccccc4C3)c3ncnc(N)c23)cnc1Cl [Compound No. 104, 5-[4-amino-1-(2,3-dihydro-1H-inden-2-yl)-1H-pyrazolo[3,4-d]pyrimidin-3-yl]-2-chloropyridin-3-amine] | – | 72.07 | 54.9 | – | 38.16 | 282 | 28.78 ± 19.62 (n = 5) % Inh | 94.25 | 82.84 | –
4 | COc1cc(-c2nn(C3Cc4ccccc4C3)c3ncnc(N)c23)cc(C#N)c1OC [Compound No. 105, 5-[4-amino-1-(2,3-dihydro-1H-inden-2-yl)-1H-pyrazolo[3,4-d]pyrimidin-3-yl]-2,3-dimethoxybenzonitrile] | – | 27.50 | – | – | 16.0 | – | 24.25 ± 33.84 (n = 5) % Inh | 59.18 | 34.72 | –
5 | Nc1ncnc2c1c(-c1cc(O)cc(F)c1)nn2C1CCc2cc(F)ccc21 (stereo not drawn) [compound 42, 3-[4-amino-1-(5-fluoro-2,3-dihydro-1H-inden-1-yl)-1H-pyrazolo[3,4-d]pyrimidin-3-yl]-5-fluorophenol] | – | 23.06 | – | – | 70.85 | – | 22.71 ± 5.53 (n = 3) % Inh | – | – | –
6 | Nc1ncnc2c1c(-c1ccc3[nH]c(O)nc3c1)nn2C1Cc2ccccc2C1 [compound 108, 5-[4-amino-1-(2,3-dihydro-1H-inden-2-yl)-1H-pyrazolo[3,4-d]pyrimidin-3-yl]-1H-1,3-benzodiazol-2-ol] | 1.76 | 6.6 | – | 9.28 | 21.98 | – | 11.99 ± 7.58 (n = 3) % Inh | – | – | –
7 | Nc1cc(-c2nn(C3Cc4ccccc4C3)c3ncnc(N)c23)cc(F)c1F [compound 109, 3-(3-amino-4,5-difluorophenyl)-1-(2,3-dihydro-1H-inden-2-yl)-1H-pyrazolo[3,4-d]pyrimidin-4-amine] | 14.85 | 63.35 | – | 2.46 | 26.17 | – | 10.19 ± 14.12 (n = 3) % Inh | – | – | –
8 | NC(=O)c1ccc(-c2nn(C3Cc4ccccc4C3)c3ncnc(N)c23)cc1O [compound 111, 4-[4-amino-1-(2,3-dihydro-1H-inden-2-yl)-1H-pyrazolo[3,4-d]pyrimidin-3-yl]-2-hydroxybenzamide] | 6.49 | 17.47 | – | 64.38 | 91.28 | – | 57.39 ± 5.05 (n = 3) % Inh | – | – | 118 ± 11.1
